Where two headings read alike, the source gives them in different places. No end group written: not given here.
Key:
[1] = Text: The polydispersity of a virosomal preparation is an indication for the homogeneity of the particle size in an aqueous solution, with lower polydispersity being associated with a greater degree of homogeneity of size over all virosomes present in the composition.
[2] = physchem
[3] = physchem; remark: listed apart in the source

In the case of PESFDGDPASNTAPLQPGGGGGC [PEV601], the “Stabilty(I)IRIV” value [1] is reported as “acceptable” and the solubility [2] is reported as 2000 to 3000 µg/mL.

For “PESFDGDPASNTAPLQPRVLQGLPREYVNARHSLPYMPIWKFPDEEGAC [PEV604]”, the “Stabilty(I)IRIV” value [1] was “limited”, the solubility [3] was 500 to 1500 µg/mL and the solubility [2] was 800 µg/mL.

For “PESFDGDPASNTAPLQPRVLQGLPREYVNARHSYMPIWKFPDEEGAC [PEV605, PESFDGDPASNTAPLQP RVLQGLPREYVNARHS YMPIWKFPDEEGAC]”, the “Stabilty(I)IRIV” value [1] was “limited” and the solubility [2] was 800 µg/mL.

In the case of “PESFDGDPASNTAPLQPYMPIWKFPDEEGASRVLQGLPREYVNARHC [PEV606, PESFDGDPASNTAPLQP YMPIWKFPDEEGAS RVLQGLPREYVNARHC]”, the “Stabilty(I)IRIV” value [1] is reported as “limited” and the solubility [2] is reported as 800 µg/mL.

In the case of “RVLQGLPREYVNARHC [PEV602, RVLQGLPREYVNARHC]”, the “Stabilty(I)IRIV” value [1] is reported as “limited” and the solubility [2] is reported as 500 µg/mL.

For “RVLQGLPREYVNARHSPESFDGDPASNTAPLQPYMPIWKFPDEEGAC [PEV607, RVLQGLPREYVNARHS PESFDGDPASNTAPLQP YMPIWKFPDEEGAC]”, the “Stabilty(I)IRIV” value [1] was “limited”, the solubility [3] was 500 to 1500 µg/mL and the solubility [2] was 800 µg/mL.

For “RVLQGLPREYVNARHSYMPIWKFPDEEGASPESFDGDPASNTAPLQPC [PEV608, RVLQGLPREYVNARHS YMPIWKFPDEEGAS PESFDGDPASNTAPLQPC]”, the “Stabilty(I)IRIV” value [1] was “limited” and the solubility [2] was 800 µg/mL.

With YMPIWKFPDEEGAC [PEV603, YMPIWKFPDEEGAC] the “Stabilty(I)IRIV” value [1] was “limited”, the solubility [3] was 2000 to 3000 µg/mL and the solubility [2] was under 200 µg/mL.

In the case of “YMPIWKFPDEEGASPESFDGDPASNTAPLQPRVLQGLPREYVNARHC [PEV609, YMPIWKFPDEEGAS PESFDGDPASNTAPLQP RVLQGLPREYVNARHC]”, the “Stabilty(I)IRIV” value [1] is reported as “limited” and the solubility [2] is reported as 800 µg/mL.

In the case of “YMPIWKFPDEEGASRVLQGLPREYVNARHSPESFDGDPASNTAPLQPC [PEV610, YMPIWKFPDEEGAS RVLQGLPREYVNARHS PESFDGDPASNTAPLQPC]”, the “Stabilty(I)IRIV” value [1] is reported as “limited” and the solubility [2] is reported as 800 µg/mL.

— US8852604B2, “Multiepitope vaccine for Her2/neu-associated cancers” (Pevion Biotech AG, priority 2009, dated 2014)
